Results: patent US20120157453A1, “RAF INHIBITOR COMPOUNDS AND METHODS OF USE THEREOF” (GENENTECH, INC., priority 2009, published 2012)
Where two headings read alike, the source gives them in different places.

Assays:
V600E full-length B-Raf = molecular target: T1, V600E full-length B-Raf (Homo sapiens, UniProt P15056, V600E); test: B-Raf IC50 assay (incorporation of 33P phosphate into FSBA-modified MEK); type: biochemical
T1 construct: 1 μM FSBA-MEK and 20 nM V600E full-length B-Raf; made in house; host or cells: Sf9 insect cells (baculovirus)
From the text: Determining the activity of Raf in the sample is possible by a number of direct and indirect detection methods (US 2004/0082014). Activity of human recombinant B-Raf protein may be assessed in vitro by assay of the incorporation of radio labeled phosphate to recombinant MAP kinase (MEK), a known physiologic substrate of B-Raf, according to US 2004/0127496 and WO 03/022840. The activity/inhibition of V600E full-length B-Raf was estimated by measuring the incorporation of radio labeled phosphate from [γ-^33P]ATP into FSBA-modified wild-type MEK (see Example A).
Activity of human recombinant B-Raf protein may be assessed in vitro by assay of the incorporation of radio labeled phosphate to recombinant MAP kinase (MEK), a known physiologic substrate of B-Raf, according to US 2004/0127496 and WO 03/022840. Catalytically active human recombinant B-Raf protein is obtained by purification from sf9 insect cells infected with a human B-Raf recombinant baculovirus expression vector.
The activity/inhibition of V600E full-length B-Raf was estimated by measuring the incorporation of radio labeled phosphate from [γ-^33P]ATP into FSBA-modified wild-type MEK. The 30-μL assay mixtures contained 25 mM Na Pipes, pH 7.2, 100 mM KCl, 10 mM MgCl2, 5 mM β-glycerophosphate, 100 μM Na Vanadate, 4 μM ATP, 500 nCi [γ-^33P]ATP, 1 μM FSBA-MEK and 20 nM V600E full-length B-Raf. Incubations were carried out at 22° C. in a Costar 3365 plate (Corning). Prior to the assay, the B-Raf and FSBA-MEK were preincubated together in assay buffer at 1.5× (20 μL of 30 nM and 1.5 μM, respectively) for 15 minutes, and the assay was initiated by the addition of 10 μL of 10 μM ATP. Following the 60-minute incubation, the assay mixtures were quenched by the addition of 100 μL of 25% TCA, the plate was mixed on a rotary shaker for 1 minute, and the product was captured on a Perkin-Elmer GF/B filter plate using a Tomtec Mach III Harvester. After sealing the bottom of the plate, 35 μL of Bio-Safe II (Research Products International) scintillation cocktail were added to each well and the plate was top-sealed and counted in a Topcount NXT (Packard).

[1] = test system: basal ERK1/2 phosphorylation in Malme-3M cells; test: Cellular ERK 1/2 phosphorylation assay; type: cell-based; details: Homo sapiens, 1 h, pERK normalized to total ERK
Method: Inhibition of basal ERK1/2 phosphorylation was determined by the following in vitro […], which comprises incubating cells with a compound of Formula II for 1 hour and quantifying the fluorescent pERK signal on fixed cells and normalizing to total ERK signal.
Materials and Methods: Malme-3M cells were obtained from ATCC and grown in RPMI-1640 supplemented with 10% fetal bovine serum. Cells were plated in 96-well plates at 24,000 cells/well and allowed to attach for 16-20 hours at 37° C., 5% CO2. The media was removed, and DMSO-diluted compounds were added in RPMI-1640 at a final concentration of 1% DMSO. The cells were incubated with the compounds for 1 hour at 37° C., 5% CO2. The cells were washed with PBS and fixed in 3.7% formaldehyde in PBS for 15 minutes. This was followed by washing in PBS/0.05% Tween20 and permeabilizing in −20° C. 100% MeOH for 15 minutes. Cells were washed in PBS/0.05% Tween20 then blocked in Odyssey blocking buffer (LI-COR Biosciences) for 1 hour. Antibodies to phosphorylated ERK (1:400, Cell Signaling #9106, monoclonal) and total ERK (1:400, Santa Cruz Biotechnology #sc-94, polyclonal) were added to the cells and incubated 16-20 hours at 4° C. After washing with PBS/0.05% Tween20, the cells were incubated with fluorescently-labeled secondary antibodies (1:1000 goat anti-rabbit IgG-IRDye800, Rockland and 1:500 goat anti-mouse IgG-Alexa Fluor 680, Molecular Probes) for an additional hour. Cells were then washed and analyzed for fluorescence at both wavelengths using the Odyssey Infrared Imaging System (LI-COR Biosciences). Phosphorylated ERK signal was normalized to total ERK signal.

[2] = B-Raf V600E, bound less than 1 μM, read-out: IC50
[3] = Example A assay, 4 μM ATP, 20 nM enzyme, 60-minute incubation, read-out: BRAF V600E IC50

T1 sequence (P15056 whole entry V600E): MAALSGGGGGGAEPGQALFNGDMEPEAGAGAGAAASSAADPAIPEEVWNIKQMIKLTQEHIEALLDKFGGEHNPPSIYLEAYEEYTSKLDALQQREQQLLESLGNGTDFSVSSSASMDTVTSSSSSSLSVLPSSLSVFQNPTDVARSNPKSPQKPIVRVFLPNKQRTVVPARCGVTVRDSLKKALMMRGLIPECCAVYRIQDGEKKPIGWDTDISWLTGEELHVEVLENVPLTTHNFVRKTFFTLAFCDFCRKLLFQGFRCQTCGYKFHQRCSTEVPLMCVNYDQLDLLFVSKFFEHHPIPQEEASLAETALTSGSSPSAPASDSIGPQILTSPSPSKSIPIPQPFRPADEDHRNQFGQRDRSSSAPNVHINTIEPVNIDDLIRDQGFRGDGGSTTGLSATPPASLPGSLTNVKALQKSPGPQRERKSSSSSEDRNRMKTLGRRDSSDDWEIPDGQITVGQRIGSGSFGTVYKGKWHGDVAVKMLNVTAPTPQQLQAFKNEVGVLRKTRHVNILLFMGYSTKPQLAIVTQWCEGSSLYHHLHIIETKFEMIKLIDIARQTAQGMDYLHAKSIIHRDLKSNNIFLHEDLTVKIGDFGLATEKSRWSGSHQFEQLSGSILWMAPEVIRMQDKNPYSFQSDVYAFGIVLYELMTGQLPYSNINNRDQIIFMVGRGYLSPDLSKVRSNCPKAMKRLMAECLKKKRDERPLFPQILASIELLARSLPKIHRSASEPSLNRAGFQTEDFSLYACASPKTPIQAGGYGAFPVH

| SMILES | IC50 (V600E full-length B-Raf; [2]) [nM] | IC50 (V600E full-length B-Raf; [3]) [nM] | IC50 ([1]; bound less than 500 nM) [nM] | IC50 ([1]; bound less than 1 μM) [nM] | IC50 [1] [nM] | IC50 (V600E full-length B-Raf) [nM] |
| --- | --- | --- | --- | --- | --- | --- |
| CCCS(=O)(=O)Nc1ccc(F)c(NC(=O)Nc2ncnc3[nH]c(=S)[nH]c23)c1F [Example 23, Propane-1-sulfonic acid {2,4-difluoro-3-[3-(8-thioxo-8,9-dihydro-7H-purin-6-yl)-ureido]-phenyl}-amide] | < 1000 | 29.2 |  |  |  |  |
| CCCS(=O)(=O)Nc1ccc(F)c(NC(=O)Nc2ncnc3[nH]ncc23)c1F [Example 11, Propane-1-sulfonic acid {2,4-difluoro-3-[3-(1H-pyrazolo[3,4-d]pyrimidin-4-yl)-ureido]-phenyl}-amide] | < 1000 |  | < 500 | < 1000 |  | 5.5 |
| CCCS(=O)(=O)Nc1ccc(F)c(NC(=O)Nc2ncnc3sc(C)c(C)c23)c1F [Example 20, Propane-1-sulfonic acid {3-[3-(5,6-dimethyl-thieno[2,3-d]pyrimidin-4-yl)-ureido]-2,4-difluoro-phenyl}-amide] | < 1000 | 28.2 |  | < 1000 |  |  |
| CCCS(=O)(=O)Nc1ccc(F)c(NC(=O)N(C)c2ncnc3[nH]ccc23)c1F [Example 6, Propane-1-sulfonic acid {2,4-difluoro-3-[3-methyl-3-(7H-pyrrolo[2,3-d]pyrimidin-4-yl)-ureido]-phenyl}-amide] | < 1000 | 57 |  |  |  |  |
| CCCS(=O)(=O)Nc1ccc(F)c(NC(=O)Nc2ncnc3[nH]nnc23)c1F [Example 14, Propane-1-sulfonic acid {2,4-difluoro-3-[3-(3H-[1,2,3]triazolo[4,5-d]pyrimidin-7-yl)-ureido]-phenyl}-amide] |  | 1960 |  |  |  |  |
| CCCS(=O)(=O)Nc1ccc(F)c(NC(=O)Nc2ncnc3[nH]nc(OCCCO)c23)c1F [Example 15, Propane-1-sulfonic acid {2,4-difluoro-3-{3-[3-(3-hydroxy-propoxy)-1H-pyrazolo[3,4-d]pyrimidin-4-yl]-ureido}-phenyl)-amide] | < 1000 | 428 |  |  |  |  |
| CCCS(=O)(=O)Nc1ccc(F)c(NC(=O)Nc2ncnc3oc(C)c(C)c23)c1F [Example 18, Propane-1-sulfonic acid {3-[3-(5,6-dimethyl-furo[2,3-d]pyrimidin-4-yl)-ureido]-2,4-difluoro-phenyl}-amide] | < 1000 | 431 |  |  |  |  |

Second part, led by results:

| IC50 (V600E full-length B-Raf; [2]) [nM] | IC50 (V600E full-length B-Raf; [3]) [nM] | SMILES | IC50 ([1]; bound less than 500 nM) [nM] | IC50 ([1]; bound less than 1 μM) [nM] | IC50 [1] [nM] | IC50 (V600E full-length B-Raf) [nM] |
| --- | --- | --- | --- | --- | --- | --- |
| < 1000 | 18.8 | CCCS(=O)(=O)Nc1ccc(Cl)c(NC(=O)Nc2ncnc3sccc23)c1F [Example 22, Propane-1-sulfonic acid [4-chloro-2-fluoro-3-(3-thieno[2,3-d]pyrimidin-4-yl-ureido)-phenyl]-amide] | < 500 | < 1000 |  |  |
| < 1000 | 25.2 | CCCS(=O)(=O)Nc1ccc(F)c(NC(=O)Nc2ncnc3sc4c(c23)CCC4)c1F [Example 19, Propane-1-sulfonic acid {3-[3-(6,7-dihydro-5H-cyclopenta[4,5]thieno[2,3-d]pyrimidin-4-yl)-ureido]-2,4-difluoro-phenyl}-amide] | < 500 | < 1000 | 176 |  |
| < 1000 | 3.9 | CCS(=O)(=O)Nc1ccc(F)c(NC(=O)Nc2ncnc3[nH]nc(OC)c23)c1Cl [Example 5, Ethanesulfonic acid {2-chloro-4-fluoro-3-[3-(3-methoxy-1H-pyrazolo[3,4-d]pyrimidin-4-yl)-ureido]-phenyl}-amide] | < 500 | < 1000 | 47.9 |  |
| < 1000 | 3.8 | CCCS(=O)(=O)Nc1ccc(F)c(NC(=O)Nc2ncnc3[nH]nc(I)c23)c1F [Example 7, Propane-1-sulfonic acid {2,4-difluoro-3-[3-(3-iodo-1H-pyrazolo[3,4-d]pyrimidin-4-yl)-ureido]-phenyl}-amide] |  | < 1000 |  |  |
| < 1000 | 1.3 | CCCS(=O)(=O)Nc1ccc(F)c(NC(=O)Nc2ncnc3[nH]nc(OC)c23)c1Cl [Example 2, Propane-1-sulfonic acid {2-chloro-4-fluoro-3-[3-(3-methoxy-1H-pyrazolo[3,4-d]pyrimidin-4-yl)-ureido]-phenyl}-amide] | < 500 | < 1000 |  |  |
